Values joined by “and” are separate entries in the source; they are usually repeats but may differ in a detail not shown here. Identical values can stand only once.
Columns and labels:
[1] = test system: PDBu receptor (phorboid receptor) of murine brain membranous fraction (BMF); test: PDBu binding inhibiting activity (PBIA): inhibition of 3H-PDBu binding to murine brain membranous fraction; set-up: species or system murine (mouse, NFS strain)
Protocol: Pooled murine brains from approximately 2 month old mice, NFS strain, were minced with scissors, suspended in 1 mM triethanolamine-HCl, pH 7.4, and disrupted with a polytron P-10 (Brinkman). This and all subsequent steps were performed at 4° C. The homogenate was centrifuged for 10 minutes at 1700 xg; the supernate was removed and centrifuged for 60 minutes at 105,000 xg. The resulting pellet was suspended in one-fourth of the initial volume of PBS. The suspension was aliquoted into a small volume and stored at -70° C.
The binding of ^3 H-PDBu to BMF or soluble receptors was performed in duplicate in 12×75 mm disposable glass tubes (Kimax) both in the absence and presence of 20 μg/ml unlabeled PDBu; the binding mixture contained 5 ng of ^3 H-PDBu (4×10^4 cpm), 0.2% final concentration of DMSO and BMF (50 μg protein) or soluble receptors in a total volume of 0.25 ml binding buffer (BB) consisting of Dulbecco's minimum essential medium (DMEM) containing bovine serum albumin (BSA 1 mg/ml) and N,N,-bis-(2-hydroxyethyl)-2-amino-ethane sulfonic acid (BES, 5 mM), adjusted to pH 6.8. After incubation for 30 minutes at 23° C. the tubes were chilled, 0.5 ml cold 4% calf serum (Colorado Serum Co., Denver, Colo.) and 0.7 ml cold polyethylene glycol (PEG 6,000) in 1 mM Tris-HCl, pH 7.4 was added to each tube, the contents vortexed, the tubes allowed to stand for 15 min at 4° C., and centrifuged for 10 in at 1500 xg at 4° C. The supernatant solution was carefully aspirated off, the pellet suspended in 2.5 ml of cold 10% PEG in 0.1M Tris-HCl, pH 7.4, containing 0.5% SDS and 1 mM EDTA). The mixture was transferred to counting vials and 10 ml of Aquassure (NEN) was added to each vial. The vials were vigorously shaken and radioactivity determined using a Beckman beta counter. The radioactivity bound in the presence of 20 μg/ml (50-200 cpm) unlabeled PDBu was considered to be nonspecific and all data were corrected accordingly.
The loss of the ability of ^3 H-PDBu to bind to receptors in the presence of ligand was used as the measure of inhibiting activity. PDBu binding inhibition assays were performed as described above, except the test materials were added to the reaction mixture and binding measured as described above.
The PBIA of ligand was equated with that of PDBu by the use of the term ng equivalent calculated from a plot of [^3 H]PDBu bound versus the log molar concentration for several biologically active phorbol esters (2). The curve corresponding to PDBu inhibition of PDBu binding was used by reading the molar concentration corresponding to the percent of control binding of [^3 H]PDBu in the presence of ligand to obtain the units ng PDBu equivalent of ligand.

[2] = test system: arachidonic acid cascade; test: Stimulation of arachidonic acid cascade: release of radioactivity from cells labeled with radioactive arachidonic acid; type: cell-based
From the text: (§1) The release of radioactivity into the medium from cells previously labeled with radioactive arachidonic acid was used as a measure of activation of eicosanoids pathway. […] PBIL from all sources inhibited PDBu-receptor interaction.

[3] = test system: arachidonic acid cascade in mink lung cells; test: Activation of arachidonic acid cascade in mink lung cells; type: cell-based
From the text: as §1

[4] = test system: purified phorboid receptor (serine-protein kinase); test: Protein kinase activity of purified phorboid receptor; type: biochemical, murine
Protocol: In the final volume of 0.25 ml, the reaction mixture in duplicate contained 5 μmol Tris-HCl (pH 7.4), 1 μmol MgCl2, 50 μg histone, 0.12 nmol [-^32 P] ATP (8×10^6 cpm at arrival) and an appropriate amount of purified receptor protein. The reaction was carried out for 15 min at 23° C. The phosphorylated proteins were precipitated with 5% cold TCA, using BSA (250 μg) as carrier. The mixture in the tubes was allowed to settle at 4° C. for 15-30 min. Precipitates were collected on cellulose nitrate filters (0.45 μm) and washed with 75 ml of cold 5% TCA. Filters were dried and counted in Betafluor scintillation fluid.
Purified phorboid receptor from murine brain was purified to homogeneity and shown that the purified receptor is a serine-protein kinase (Shoyab, Cell Proliferation (CSH Laboratory) (1984) 11:253-262). The effect of PBIL on this protein kinase was tested. […] At higher concentration the kinase activity was inhibited (Table 4).
The assay conditions were the same as described in the text except the indicated amount of PBIL and 25 ng of purified receptor protein (Shoyab, Cell Proliferation (CSH Laboratory) (1984) 11:253-262) were used.

[5] = concentration 0.8 (unit not given)
[6] = concentration 0.4 (unit not given)
[7] = concentration 0.2 (unit not given)

SMILES | Inhibition of binding of PDBu to its receptor [1, 5] | Inhibition of binding of PDBu to its receptor [1, 6] [%] | further results
CCCCCCCC/C=C\CCCCCCCC(=O)OCC(CO)OC(=O)CCCCCCC/C=C\CCCCCCCC (stereo not drawn) [1,2-Diolein, reference compound] | 20% |  | 
CCCCC/C=C\C/C=C\CCCCCCCC(=O)OCC(O)COC(=O)CCCCCCC/C=C\C/C=C\CCCCC [1,3-Dilinolein, reference compound] | 15% |  | 
CCCCCCCCCCCCCC(=O)OCC(O)COC(=O)CCCCCCCCCCCCC [1,3-Dimyristin, reference compound] |  | 1 | 
CCCCCCCC/C=C\CCCCCCCC(=O)OCC(O)COC(=O)CCCCCCC/C=C\CCCCCCCC [1,3-Diolein, reference compound] | 11% |  | 
CCCCCCCCCCCCCCCC(=O)OCC(O)COC(=O)CCCCCCCCCCCCCCC [1,3-Dipalmitin, reference compound] | -12% |  | 
CCCCC/C=C\C/C=C\C/C=C\C/C=C\CCCC(=O)OCC(O)CO (stereo not drawn) [1-Monoarachidonin, 1-monoarachidonin] | 95% | 91 | Stimulation of arachidonic acid cascade (release of radioactivity into the medium) [2]: stimulate the arachidonic acid cascade; Inhibition of / competition for PDBu binding to receptor (in words) [1]: compete with phorbol dibutyrate for its receptor; Inhibition of binding of PDBu to its receptor [1, 7]: 41%
CCCCC/C=C\C/C=C\CCCCCCCC(=O)OC[C@@H](O)CO [1-Monolinolein, 1-monolinolein] | 94% | 82 | Stimulation of arachidonic acid cascade (release of radioactivity into the medium) [2]: stimulate the arachidonic acid cascade; Inhibition of / competition for PDBu binding to receptor (in words) [1]: compete with phorbol dibutyrate for its receptor; Inhibition of binding of PDBu to its receptor [1, 7]: 39%; Activation of arachidonic acid cascade [3]: activated the arachidonic acid cascade in mink lung cells in a dose- and time-dependent manner
CC/C=C\C/C=C\C/C=C\CCCCCCCC(=O)OCC(O)CO (stereo not drawn) [1-Monolinolenin, 1-monolinolenin] | 94% | 74 | Inhibition of binding of PDBu to its receptor [1, 7]: 27%
CCCCCCCCCCCCCC(=O)OCC(O)CO (stereo not drawn) [1-Monomyristin, reference compound] |  | 0 | 
CCCCCCCC/C=C\CCCCCCCC(=O)OCC(O)CO (stereo not drawn) [1-Monoolein, 1-monoolein] | 63% | 21 | 
CCCCCCCCCCCCCCCC(=O)OCC(O)CO (stereo not drawn) [1-Monopalmitin, 1-monopalmitin] | -6% and -15% |  | 
CCCCCC/C=C\CCCCCCCC(=O)OCC(O)CO (stereo not drawn) [1-Monopalmitolein, 1-monopalmitolein] | 82% | 36 | Stimulation of arachidonic acid cascade (release of radioactivity into the medium) [2]: stimulate the arachidonic acid cascade; Inhibition of / competition for PDBu binding to receptor (in words) [1]: compete with phorbol dibutyrate for its receptor
OCC(O)CO [Glycerol, reference compound] |  | 0 | 
CCCCC/C=C\C/C=C\CCCCCCCC(=O)O [Linoleic acid-Na, reference compound] | 15% | 10 | 
CCCCCCCCCCCCCC(=O)O[C@@H]1[C@@H](C)[C@@]2(O)[C@@H](C=C(CO)C[C@]3(O)C(=O)C(C)=C[C@@H]23)[C@@H]2C(C)(C)[C@]12OC(C)=O [TPA, 12-0-tetradecanoylphorbol-13-acetate] |  |  | Stimulation of protein kinase activity (in words) [4]: stimulated the kinase activity
CCCCCCCCCCCC(=O)OCC(COC(=O)CCCCCCCCCCC)OC(=O)CCCCCCCCCCC [Trilaurin, reference compound] |  | 11 | 
CCCCC/C=C\C/C=C\CCCCCCCC(=O)OCC(COC(=O)CCCCCCC/C=C\C/C=C\CCCCC)OC(=O)CCCCCCC/C=C\C/C=C\CCCCC [Trilinolein, reference compound] | -1% |  | 
CCCCCCCCCCCCCC(=O)OCC(COC(=O)CCCCCCCCCCCCC)OC(=O)CCCCCCCCCCCCC [Trimystrin, reference compound] |  | 15 | 
CCCCCCCCCCCCCCCC(=O)OCC(COC(=O)CCCCCCCCCCCCCCC)OC(=O)CCCCCCCCCCCCCCC [Tripalmitin, reference compound] | -8% | -11 | 

Reference: US5077312A, “Biologically active lipids binding membrane receptors” (priority 1990, dated 1991)
